The values below come from patent publication US20230255934A1, “NURR1 RECEPTOR MODULATORS AND USES THEREOF” (The Regents of the University of California, priority 2020, published 2023).

The target of assay [1] is T1, full-length Nurr1 (NBRE response element) (Mus musculus, UniProt Q06219).
T1 construct: a cell line derived from dopaminergic neurons which endogenously expresses full length Nurr1 and its target genes; endogenous in cells; host or cells: MN9D TET-ON cells
Kind of assay: Full-length Nurr1 NBRE luciferase reporter assay in MN9D cells. Format: cell-based. The settings on record: 6 h treatment. How it is done: Luciferase Reporter Assays. These assays were executed using standard protocols. MN9D TET-ON cells (P5) were grown for 60-72 h (see above) before being seeded at 1-10^5 cell/well in 24-well plate in DMEM/F12+5% TET-ON approved FBS 3 h before transfection. Cells were transfected using Lipofectamine 2000 (Invitrogen) and plasmid DNAs according to manufacturer's instructions. Lipofectamine/DNA complexes were prepared in Opti-Mem medium (Gibco) and incubated with cells overnight. The Nurr1-LBD_Gal4-DBD expressing plasmid was prepared by subcloning the Nurr1 LBD fragment into […] plasmid (Clontech) containing GAL4 DBD. The reporter plasmid pGL4.35 (luc2P/9XGAL4 UAS/Hygro) Vector (Promega) contains nine repeats of GAL4 UAS (Upstream Activator Sequence) and drives transcription of the luciferase reporter gene luc2P in response to binding of Nurr-LBD_Gal4-DBD chimeric protein. The pRL-null (Promega) plasmid expressing renilla luciferase was used as an internal control. […] Alternatively, cells were co-transfected with the reporter plasmid NBREx3-POMC-Luc containing three copies of the NBRE sequence ([NT] ID NO:23)) subcloned into the pXP1-luc plasmid containing the minimal (positions -34 to +63) POMC promoter as described previously^7, and the pRL-null plasmid. […] Transfected cells were treated with increasing concentrations of 5-chloroindole or vehicle only for 6 h, after which time the media was aspirated and luciferase activity was measured. Cells from each well were incubated for 15 min with 220 μL/well of Dual-Glo® Luciferase Reagent (Promega) at room temperature upon rotation on the orbital shaker. […] Resulting solutions were transferred to a white opaque 96-well plate (65 μL/well; 3 wells/sample) and firefly luciferase activity was measured using Veritas Microplate Luminometer (Turner BioSystems, Sunnyvale, Calif.). […] Renilla luciferase activity was measured after 20 min of incubation of the plate inside the luminometer. Experimental values are expressed as the average of firefly/renilla luciferase activity±standard deviation (for three independent biological replicates). […]
In general terms: Reporter assays use an easily measured gene product as a stand-in for the process of interest.

Assay [2] deals with th and vmat2 expression. The settings on record: zebrafish; cited from earlier work.
The target in assay [3] is Nurr1 ligand binding domain (LBD) (Homo sapiens, UniProt P43354). The note with it: non-canonical ligand binding pocket, Cys566; cited from earlier work.
Nurr1 ligand binding domain (LBD), sequence (P43354 360-595 limits assumed): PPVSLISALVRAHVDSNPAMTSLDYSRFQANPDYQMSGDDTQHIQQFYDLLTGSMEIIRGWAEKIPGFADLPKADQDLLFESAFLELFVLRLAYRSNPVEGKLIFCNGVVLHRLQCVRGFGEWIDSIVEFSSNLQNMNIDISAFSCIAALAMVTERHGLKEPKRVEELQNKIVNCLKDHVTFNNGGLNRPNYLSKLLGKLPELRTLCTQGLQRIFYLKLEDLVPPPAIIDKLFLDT

T1 sequence (Q06219 whole entry): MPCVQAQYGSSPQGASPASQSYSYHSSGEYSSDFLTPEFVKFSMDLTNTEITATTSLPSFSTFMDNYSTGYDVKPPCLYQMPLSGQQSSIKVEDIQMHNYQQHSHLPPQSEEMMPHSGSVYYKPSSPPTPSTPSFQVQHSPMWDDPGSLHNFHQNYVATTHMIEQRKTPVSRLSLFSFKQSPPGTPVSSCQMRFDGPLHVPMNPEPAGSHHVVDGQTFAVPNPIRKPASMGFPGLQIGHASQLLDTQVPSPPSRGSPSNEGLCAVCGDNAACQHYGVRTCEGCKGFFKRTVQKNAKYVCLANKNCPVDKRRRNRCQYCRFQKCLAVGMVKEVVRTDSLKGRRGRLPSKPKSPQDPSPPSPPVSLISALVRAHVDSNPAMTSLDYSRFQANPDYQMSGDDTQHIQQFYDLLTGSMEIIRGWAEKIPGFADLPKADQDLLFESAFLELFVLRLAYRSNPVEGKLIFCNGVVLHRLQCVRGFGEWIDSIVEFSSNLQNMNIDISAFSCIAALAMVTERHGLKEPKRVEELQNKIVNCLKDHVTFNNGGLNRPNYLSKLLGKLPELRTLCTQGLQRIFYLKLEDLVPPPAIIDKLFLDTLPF

As to `N#Cc1ccc2[nH]ccc2c1` [5-cyanoindole, reference compound], in assay [1], the “Luciferase production, full-length Nurr1 NBRE reporter” value was “perform as expected”. For `Oc1cc2cc[nH]c2cc1O` [DHI, 5,6-dihydroxyindole], in assay [2], the “Expression of th and vmat2” value was “stimulates the expression of th and vmat2”. Moreover, the “Binding to the Nurr1 LBD (in words)” value in assay [3] is “forming a reversible covalent adduct with the side chain of Cys566”. On to `CCN(CC)Cc1cc(Nc2ccnc3cc(Cl)ccc23)ccc1O` [amodiaquine, reference compound], for which the “Luciferase production, full-length Nurr1 NBRE reporter” value in assay [1] is listed as “perform as expected”.
